Counter-ions that a name gives are not always drawn. Marks after values point to notes of the source that are not given here.
Columns and labels:
ROCK2 = ROCK2 (Homo sapiens, UniProt O75116); experiment: ROCK2 inhibition; format: biochemical
[1] = phase I two-part drug-drug interaction study, plasma pharmacokinetics (Example 1); format: in vivo, human
Text: The secondary objective was to provide additional information on the safety and tolerability of this dose regimen in healthy males.
This was a single center, non-randomized, DDI study in 35 (Part 1) and 38 (Part 2) healthy males. The key inclusion criterion was males aged 18 to 55 years (inclusive). […] In Part 2, co-administration with omeprazole was studied. The study design is illustrated in FIG. 1.
At least a 2-to 8-day washout occurred between each period to account for a minimum of 5 half-lives of the active moieties dosed in the preceding period.
Blood samples were collected into 6 mL K,EDTA tubes and were processed within 30 minutes of collection. The resultant plasma was then frozen within 90 minutes of collection and stored at […] until shipment to the bioanalytical laboratory.
For each comparison, PK parameters were natural log transformed and analyzed using mixed effect modeling with treatment included as a fixed effect and subject as a random effect. Adjusted geometric mean ratios (GMRs) and corresponding 90% CIs were calculated.

[2] = human, in vivo
[3] = solubility of belumosudil mesylate in solvents; format: physicochemical
patients with cGVHD = conditions: cited from earlier work
[4] = 200 mg belumosudil BID + omeprazole
[5] = 200 mg belumosudil BID + omeprazole, first dose
[6] = 200 mg belumosudil BID + omeprazole, second dose
[7] = 200 mg belumosudil BID alone, first dose
[8] = 200 mg belumosudil BID alone, second dose
[9] = 200 mg belumosudil single dose + itraconazole
[10] = 200 mg belumosudil single dose + rabeprazole
[11] = 200 mg belumosudil single dose + rifampicin
[12] = 200 mg belumosudil single dose alone
[13] = coadministration of itraconazole
[14] = coadministration of rabeprazole

Chain of ROCK2 (O75116 whole entry): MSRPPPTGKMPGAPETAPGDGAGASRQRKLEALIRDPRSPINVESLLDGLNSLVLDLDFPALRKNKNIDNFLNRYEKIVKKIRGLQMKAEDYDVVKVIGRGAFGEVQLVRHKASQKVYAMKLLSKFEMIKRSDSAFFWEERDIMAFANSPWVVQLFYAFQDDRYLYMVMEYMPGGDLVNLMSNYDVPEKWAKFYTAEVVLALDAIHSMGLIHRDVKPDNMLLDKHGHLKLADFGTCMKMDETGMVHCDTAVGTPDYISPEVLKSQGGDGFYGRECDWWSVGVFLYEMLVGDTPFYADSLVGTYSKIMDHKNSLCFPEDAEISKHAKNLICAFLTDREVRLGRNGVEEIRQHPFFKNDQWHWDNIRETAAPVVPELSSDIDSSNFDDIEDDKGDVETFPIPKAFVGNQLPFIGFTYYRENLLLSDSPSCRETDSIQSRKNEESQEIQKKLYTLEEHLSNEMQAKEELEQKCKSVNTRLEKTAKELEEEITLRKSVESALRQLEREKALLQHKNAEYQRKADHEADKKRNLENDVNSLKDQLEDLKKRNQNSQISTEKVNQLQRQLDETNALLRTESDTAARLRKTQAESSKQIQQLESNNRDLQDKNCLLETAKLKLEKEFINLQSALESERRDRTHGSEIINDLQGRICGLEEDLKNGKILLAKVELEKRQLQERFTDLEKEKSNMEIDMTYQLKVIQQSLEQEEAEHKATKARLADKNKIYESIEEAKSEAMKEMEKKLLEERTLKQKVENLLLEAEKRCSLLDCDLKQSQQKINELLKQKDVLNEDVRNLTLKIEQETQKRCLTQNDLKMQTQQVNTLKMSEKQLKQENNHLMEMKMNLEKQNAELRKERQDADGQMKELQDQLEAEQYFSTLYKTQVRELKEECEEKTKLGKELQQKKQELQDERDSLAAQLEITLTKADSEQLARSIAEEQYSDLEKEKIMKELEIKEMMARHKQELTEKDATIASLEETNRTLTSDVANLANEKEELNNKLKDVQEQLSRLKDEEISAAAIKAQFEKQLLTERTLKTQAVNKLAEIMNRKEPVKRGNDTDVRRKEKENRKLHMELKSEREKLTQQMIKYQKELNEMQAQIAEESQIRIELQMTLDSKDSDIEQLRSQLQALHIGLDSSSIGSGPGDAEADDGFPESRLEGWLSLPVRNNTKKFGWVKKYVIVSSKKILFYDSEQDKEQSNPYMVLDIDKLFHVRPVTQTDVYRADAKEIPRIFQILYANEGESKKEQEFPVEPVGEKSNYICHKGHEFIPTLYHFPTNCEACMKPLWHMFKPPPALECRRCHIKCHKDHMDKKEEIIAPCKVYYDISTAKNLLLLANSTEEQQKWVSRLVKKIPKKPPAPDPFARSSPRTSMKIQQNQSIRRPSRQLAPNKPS

## O=C(O)COc1cccc(-c2nc(Nc3ccc4[nH]ncc4c3)c3ccccc3n2)c1 [KD025m2]
ROCK2
  ROCK2 activity of metabolite: inactive
[1]; [4]
  AUC0-24, geometric mean (geometric CV %): 767 (115.3) ^k; ng*h/mL
  AUCinf, arithmetic mean (SD): 1430 (981) ^q ng*h/mL
  AUCinf, geometric mean (geometric CV %): 1110 (90.3) ^q; ng*h/mL
  AUClast, arithmetic mean (SD): 1160 (998) ^k ng*h/mL
  AUClast, geometric mean (geometric CV %): 783 (122.6) ^k; ng*h/mL
  t1/2, arithmetic mean (SD): 3.20 (2.10) ^r h
  t1/2, geometric mean (geometric CV %): 2.76 (55.1) ^r h
[1]; [5]
  Cmax, arithmetic mean (SD): 129 (133) ^l ng/mL
  Cmax, geometric mean (geometric CV %): 72.3 (166.8) ^l; ng/mL
[1]; [6]
  Cmax, arithmetic mean (SD): 172 (160) ^n ng/mL
  Cmax, geometric mean (geometric CV %): 115 (121.8) ^n; ng/mL
[1]; 200 mg belumosudil BID alone
  AUC0-24, geometric mean (geometric CV %): 1950 (82.3) ^k; ng*h/mL
  AUCinf, arithmetic mean (SD): 2550 (2200) ^c ng*h/mL
  AUCinf, geometric mean (geometric CV %): 1900 (90.4) ^c; ng*h/mL
  AUClast, arithmetic mean (SD): 2690 (2090) ^k ng*h/mL
  AUClast, geometric mean (geometric CV %): 2030 (91.1) ^k; ng*h/mL
  t1/2, arithmetic mean (SD): 5.70 (5.24) ^c h
  t1/2, geometric mean (geometric CV %): 4.32 (78.9) ^c h
[1]; [7]
  Cmax, arithmetic mean (SD): 343 (202) ^k ng/mL
  Cmax, geometric mean (geometric CV %): 282 (75.6) ^k; ng/mL
[1]; [8]
  Cmax, arithmetic mean (SD): 323 (207) ng/mL
  Cmax, geometric mean (geometric CV %): 257 (83.9); ng/mL
[1]; [9]
  AUC0-24, geometric mean (geometric CV %): 745 (70.7); ng*h/mL
  AUCinf, arithmetic mean (SD): 1050 (792) ^c ng*h/mL
  AUCinf, geometric mean (geometric CV %): 843 (73.7) ^c; ng*h/mL
  AUClast, arithmetic mean (SD): 891 (710) ng*h/mL
  AUClast, geometric mean (geometric CV %): 704 (75.5); ng*h/mL
  Cmax, arithmetic mean (SD): 257 (152) ng/mL
  Cmax, geometric mean (geometric CV %): 221 (60.8); ng/mL
  t1/2, arithmetic mean (SD): 4.00 (3.69) ^g h
  t1/2, geometric mean (geometric CV %): 2.89 (92.2) ^g h
[1]; [10]
  AUC0-24, geometric mean (geometric CV %): 110 (84.0) ^v; ng*h/mL
  AUCinf, arithmetic mean (SD): 175 (19.4) ^t ng*h/mL
  AUCinf, geometric mean (geometric CV %): 174 (11.1) ^t; ng*h/mL
  AUClast, arithmetic mean (SD): 108 (76.5) ^v ng*h/mL
  AUClast, geometric mean (geometric CV %): 85.8 (81.6) ^v; ng*h/mL
  Cmax, arithmetic mean (SD): 29.4 (23.8) ^c ng/mL
  Cmax, geometric mean (geometric CV %): 23.5 (70.7) ^c; ng/mL
  t1/2, arithmetic mean (SD): 3.59 (1.84) ^w h
  t1/2, geometric mean (geometric CV %): 3.10 (69.6) ^w h
[1]; [11]
  AUC0-24, geometric mean (geometric CV %): 376 (56.7) ^c; ng*h/mL
  AUCinf, arithmetic mean (SD): 444 (237) ^h ng*h/mL
  AUCinf, geometric mean (geometric CV %): 396 (50.2) ^h; ng*h/mL
  AUClast, arithmetic mean (SD): 407 (237) ^c ng*h/mL
  AUClast, geometric mean (geometric CV %): 349 (61.1) ^c; ng*h/mL
  Cmax, arithmetic mean (SD): 169 (85.8) ^c ng/mL
  Cmax, geometric mean (geometric CV %): 148 (57.3) ^c; ng/mL
  t1/2, arithmetic mean (SD): 1.31 (0.368) ^h
  t1/2, geometric mean (geometric CV %): 1.27 (26.8) ^h
[1]; [12]
  AUC0-24, geometric mean (geometric CV %): 1100 (63.7); ng*h/mL
  AUCinf, arithmetic mean (SD): 1460 (910) ^d ng*h/mL
  AUCinf, geometric mean (geometric CV %): 1230 (69.5) ^d; ng*h/mL
  AUClast, arithmetic mean (SD): 1260 (811) ng*h/mL
  AUClast, geometric mean (geometric CV %): 1050 (68.1); ng*h/mL
  Cmax, arithmetic mean (SD): 379 (182) ng/mL
  Cmax, geometric mean (geometric CV %): 337 (54.7); ng/mL
  t1/2, arithmetic mean (SD): 3.86 (3.24) ^d h
  t1/2, geometric mean (geometric CV %): 3.03 (76.8) ^d h
[1]; [13]
  decrease in AUCinf vs belumosudil alone: 33%
  decrease in AUClast vs belumosudil alone: 33%
  decrease in Cmax vs belumosudil alone: 35%
[1]; coadministration of omeprazole
  decrease in AUC0-24 vs belumosudil alone: ~63%
  decrease in Cmax (first dose) vs belumosudil alone: ~73%
  decrease in Cmax, second dose vs belumosudil alone: ~57%
[1]; [14]
  decrease in AUClast vs belumosudil alone: 94%
  decrease in Cmax vs belumosudil alone: 93%

## NC(=O)COc1cccc(-c2nc(Nc3ccc4[nH]ncc4c3)c3ccccc3n2)c1 [KD025m1]
ROCK2
  ROCK2 activity of metabolite: active
[1]
  increase in AUClast vs belumosudil alone: 150%
  increase in Cmax vs belumosudil alone: 129%
[1]; [4]
  AUC0-24, arithmetic mean (SD): 113 (81.2) ^q ng*h/mL
  AUC0-24, geometric mean (geometric CV %): 91.5 (76.3) ^q; ng*h/mL
  AUCinf, arithmetic mean (SD): 279 (122) ^t ng*h/mL
  AUCinf, geometric mean (geometric CV %): 265 (47.6) ^t; ng*h/mL
  AUClast, arithmetic mean (SD): 164 (100) ^q ng*h/mL
  AUClast, geometric mean (geometric CV %): 123 (114.0) ^q; ng*h/mL
  t1/2, arithmetic mean (SD): 2.31 (0.848) ^u h
  t1/2, geometric mean (geometric CV %): 2.21 (39.0) ^u; h
[1]; [5]
  Cmax, arithmetic mean (SD): 20.5 (11.4) ^j ng/mL
  Cmax, geometric mean (geometric CV %): 18.0 (54.6) ^j; ng/mL
  Tmax, median (range): 3.00 (1.00-5.00) h
[1]; [6]
  Cmax, arithmetic mean (SD): 21.2 (11.3) ^s ng/mL
  Cmax, geometric mean (geometric CV %): 18.9 (48.7) ^s; ng/mL
  Tmax, median (range): 16.50 (13.50-22.00) h
[1]; 200 mg belumosudil BID alone
  AUC0-24, arithmetic mean (SD): 187 (161) ^l ng*h/mL
  AUC0-24, geometric mean (geometric CV %): 138 (91.3) ^l; ng*h/mL
  AUCinf, arithmetic mean (SD): 287 (149) ^o ng*h/mL
  AUCinf, geometric mean (geometric CV %): 259 (47.7) ^o; ng*h/mL
  AUClast, arithmetic mean (SD): 205 (153) ^l ng*h/mL
  AUClast, geometric mean (geometric CV %): 157 (93.0) ^l; ng*h/mL
  t1/2, arithmetic mean (SD): 2.30 (0.757) ^p h
  t1/2, geometric mean (geometric CV %): 2.19 (34.2) ^p; h
[1]; [7]
  Cmax, arithmetic mean (SD): 25.8 (12.6) ^n ng/mL
  Cmax, geometric mean (geometric CV %): 23.8 (39.6) ^n; ng/mL
  Tmax, median (range): 2.00 (1.00-6.00) h
[1]; [8]
  Cmax, arithmetic mean (SD): 26.1 (12.7) ^n ng/mL
  Cmax, geometric mean (geometric CV %): 23.6 (46.4) ^n; ng/mL
  Tmax, median (range): 13.98 (13.00-24.00) h
[1]; [11]
  AUC0-24, arithmetic mean (SD): 159 (61.2) ^c ng*h/mL
  AUC0-24, geometric mean (geometric CV %): 148 (41.9) ^c; ng*h/mL
  AUCinf, arithmetic mean (SD): 190 (37.7) ^i ng*h/mL
  AUCinf, geometric mean (geometric CV %): 187 (20.0) ^i; ng*h/mL
  AUClast, arithmetic mean (SD): 136 (55.5) ^c ng*h/mL
  AUClast, geometric mean (geometric CV %): 126 (41.7) ^c; ng*h/mL
  Cmax, arithmetic mean (SD): 55.2 (17.1) ^c ng/mL
  Cmax, geometric mean (geometric CV %): 52.5 (34.0) ^c; ng/mL
  Tmax, median (range): 2.08 (1.50-5.00) h
  t1/2, arithmetic mean (SD): 1.55 (0.325) ^j h
  t1/2, geometric mean (geometric CV %): 1.51 (21.4) ^j; h
[1]; [12]
  AUC0-24, arithmetic mean (SD): 81.3 (30.7) ^e ng*h/mL
  AUC0-24, geometric mean (geometric CV %): 75.6 (42.1) ^e; ng*h/mL
  AUClast, arithmetic mean (SD): 58.4 (18.7) ^e ng*h/mL
  AUClast, geometric mean (geometric CV %): 55.3 (36.4) ^e; ng*h/mL
  Cmax, arithmetic mean (SD): 24.9 (9.21) ^b ng/mL
  Cmax, geometric mean (geometric CV %): 23.2 (40.0) ^b; ng/mL
  Tmax, median (range): 3.00 (1.00-5.00) h
  t1/2, arithmetic mean (SD): 1.96 (0.931) ^f h
  t1/2, geometric mean (geometric CV %): 1.82 (38.5) ^f; h
[1]; [13]
  metabolite concentrations: nonquantifiable levels in all but 1 subject
[1]; [14]
  metabolite levels: nonquantifiable in all but 1 subject
[2]
  metabolite exposure relative to the parent: < 5%

## CC(C)NC(=O)COc1cccc(-c2nc(Nc3ccc4[nH]ncc4c3)c3ccccc3n2)c1 [Belumosudil mesylate, 2-{3-[4-(1H-indazol-5-ylamino)-2-quinazolinyl]phenoxy}-N-(propan-2-yl) acetamide methanesulfonate (1:1)]
[3]; DMF
  solubility in DMF: slightly soluble
[3]; DMSO
  solubility in DMSO: soluble
[3]; methanol
  solubility in methanol: slightly soluble
[3]; water
  solubility in water: practically insoluble

## C=CC(=O)N1CCC[C@@H](n2nc(-c3ccc(Oc4ccccc4)cc3)c3c(N)ncnc32)C1 [ibrutinib]
Patients with cGVHD
  discontinuation rate because of treatment-emergent adverse events (TEAEs): 43%

Source: US20240350493A1 (Kadmon Corporation, LLC, priority 2022, published 2024)
